From article PMC12486440, “Design, synthesis, and in silico studies of new benzofuran–pyrazole hybrids as multi-kinase inhibitors with potential antiproliferative activity” (RSC Advances, 2025)

Legend:
CCRF-CEM = details: Homo sapiens, CCRF-CEM
B-Raf (V600E) = B-Raf (V600E) (Homo sapiens, UniProt P15056, V600E); assay: B-Raf kinase inhibitory assay (Kinase-Glo Max); format: biochemical
Renal cancer subpanel = assay: NCI 60 subpanel summary; format: cell-based, human
Prostate cancer subpanel = assay: NCI 60 subpanel summary; format: cell-based, human
HS 578T = details: Homo sapiens
Colon cancer subpanel = assay: NCI 60 subpanel summary; format: cell-based, human
HOP-92 = details: Homo sapiens, HOP-92
[1] = system: NCI 60 cancer cell line panel; assay: NCI 60 full panel summary
Leukemia subpanel = assay: NCI 60 subpanel summary; format: cell-based, human
Pim-1 = Pim-1 (Homo sapiens, UniProt P11309); assay: PIM kinase inhibitory assay (ADP-Glo); format: biochemical
UACC-62 = details: Homo sapiens, UACC-62
UO-31 = details: Homo sapiens, UO-31
[2] = Homo sapiens, subpanel mean graph midpoint, read-out: MG-MID (GI50)
[3] = full panel MG-MID / subpanel MG-MID
[4] = single dose 10 μM, renal carcinoma
[5] = single dose 10 μM, colon cancer

Chain of B-Raf (V600E) (P15056 whole entry V600E): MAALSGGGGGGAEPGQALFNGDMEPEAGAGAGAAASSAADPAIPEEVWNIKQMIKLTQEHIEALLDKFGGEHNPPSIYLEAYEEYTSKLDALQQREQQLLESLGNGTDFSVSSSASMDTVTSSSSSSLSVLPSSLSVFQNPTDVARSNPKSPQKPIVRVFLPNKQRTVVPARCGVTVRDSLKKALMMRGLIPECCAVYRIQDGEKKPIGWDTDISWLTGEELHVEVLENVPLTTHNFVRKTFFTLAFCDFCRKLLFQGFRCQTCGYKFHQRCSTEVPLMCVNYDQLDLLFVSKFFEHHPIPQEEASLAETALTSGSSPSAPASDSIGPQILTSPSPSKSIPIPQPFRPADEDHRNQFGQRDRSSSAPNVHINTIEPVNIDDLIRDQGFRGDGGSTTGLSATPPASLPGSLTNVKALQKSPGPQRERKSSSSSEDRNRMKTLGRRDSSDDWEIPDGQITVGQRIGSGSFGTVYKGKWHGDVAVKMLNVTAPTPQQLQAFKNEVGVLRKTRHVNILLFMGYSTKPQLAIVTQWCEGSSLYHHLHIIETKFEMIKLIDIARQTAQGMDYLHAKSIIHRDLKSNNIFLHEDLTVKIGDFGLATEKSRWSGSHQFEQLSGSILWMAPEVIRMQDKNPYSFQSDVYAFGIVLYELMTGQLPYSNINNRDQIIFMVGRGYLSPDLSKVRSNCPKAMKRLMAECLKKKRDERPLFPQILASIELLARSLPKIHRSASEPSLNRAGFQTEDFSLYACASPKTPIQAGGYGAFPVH
Chain of Pim-1 (P11309 whole entry): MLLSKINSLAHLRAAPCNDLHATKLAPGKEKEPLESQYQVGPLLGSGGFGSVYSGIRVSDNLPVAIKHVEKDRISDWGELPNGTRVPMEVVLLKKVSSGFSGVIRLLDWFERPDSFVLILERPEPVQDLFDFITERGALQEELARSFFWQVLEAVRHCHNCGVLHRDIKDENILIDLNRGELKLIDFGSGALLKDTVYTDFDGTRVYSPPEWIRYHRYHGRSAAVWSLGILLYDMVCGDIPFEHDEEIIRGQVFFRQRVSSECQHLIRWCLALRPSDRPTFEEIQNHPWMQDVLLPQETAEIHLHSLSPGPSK

c1ccc(-n2cc(C3CC(c4nc5ccccc5[nH]4)=NN3)c(-c3cc4ccccc4o3)n2)cc1 (centres unmarked) [3d, 3-(Benzofuran-2-yl)-4-(3-(1H-benzo[d]imidazol-2-yl)-4,5-dihydro-1H-pyrazol-5-yl)-1-phenyl-1H-pyrazole]
GI50 (LOX IMVI; Homo sapiens, LOX IMVI): 3.71 µM | GI% (LOX IMVI; single dose 10 μM, melanoma): 75.62% | GI50 (CCRF-CEM): 3.11 µM | IC50 (B-Raf (V600E)): 0.175 µM | times less sensitive, B-Raf (V600E), than to vemurafenib (B-Raf (V600E); ratio of IC50 values): 2.8 | GI50 (UACC-257; Homo sapiens, UACC-257): 6.24 µM | GI% (UACC-257; single dose 10 μM, melanoma): 79.15% | GI50 (Renal cancer subpanel; [2]): 4.93 µM | Selectivity index (Renal cancer subpanel; [3]): 0.85 | GI50 (U251; Homo sapiens, U-251): 3.72 µM | GI% (U251; single dose 10 μM, CNS cancer): 85.69% | GI50 (OVCAR-8; Homo sapiens, OVCAR-8): 5.88 µM | GI% (OVCAR-8; single dose 10 μM, ovarian carcinoma): 86.94% | GI50 (Prostate cancer subpanel; [2]): 4.31 µM | Selectivity index (Prostate cancer subpanel; [3]): 0.97 | GI50 (PC-3; Homo sapiens, PC-3): 3.47 µM | GI% (PC-3; single dose 10 μM, prostate carcinoma): 91.14% | GI50 (TK-10; Homo sapiens, TK-10): 4.97 µM | GI% (TK-10; [4]): 75.14% | GI50 (HCT-116; Homo sapiens, HCT-116): 5.46 µM | GI% (HCT-116; [5]): 76.76% | GI50 (EKVX; Homo sapiens, EKVX): 2.69 µM | GI% (EKVX; single dose 10 μM, non-small lung carcinoma): 78.25% | GI50 (HS 578T): 7.94 µM | GI50 (RXF 393; Homo sapiens, RXF 393): 6.25 µM | GI% (RXF 393; [4]): 63.52% | GI50 (Colon cancer subpanel; [2]): 5.02 µM | Selectivity index (Colon cancer subpanel; [3]): 0.83 | GI50 (HOP-92): 4.78 µM | GI50 ([1]; Homo sapiens, read-out: Full panel MG-MID (GI50), five-dose assay, mean graph midpoint over full panel): 4.2 µM | CC50 ([1]; Homo sapiens, read-out: LC50): > 100 µM | Mean GI% ([1]; single dose 10 μM, mean over the NCI 60 panel): 83.58% | GI50 (SW-620; Homo sapiens, SW-620): 5.95 µM | GI% (SW-620; [5]): 76.92% | GI50 (Leukemia subpanel; [2]): 3.23 µM | Selectivity index (Leukemia subpanel; [3]): 1.30 | GI50 (SK-MEL-5; Homo sapiens, SK-MEL-5): 2.76 µM | GI% (SK-MEL-5; single dose 10 μM, melanoma): 90.42% | IC50 (Pim-1): 2.37 µM | times less sensitive, Pim-1, than to staurosporine (Pim-1; ratio of IC50 values): 4.9 | GI50 (HCC-2998; Homo sapiens, HCC 2998): 5.25 µM | GI% (HCC-2998; [5]): 70.76% | GI50 (MCF7; Homo sapiens, MCF7): 2.75 µM | GI% (MCF7; single dose 10 μM, breast carcinoma): 85.98% | GI50 (SF-268; Homo sapiens, SF-268): 4.51 µM | GI% (SF-268; single dose 10 μM, CNS cancer): 72.21% | GI50 (UACC-62): 1.84 µM | GI50 (MALME-3M; Homo sapiens, Malme-3M): 6.19 µM | GI% (MALME-3M; single dose 10 μM, melanoma): 81.85% | GI50 (SR; Homo sapiens, SR): 3.15 µM | GI% (SR; single dose 10 μM, leukemia): 91.17% | GI50 (KM12; Homo sapiens, KM12): 5.55 µM | GI% (KM12; [5]): 91.86% | GI50 (UO-31): 2.1 µM | GI50 (SK-MEL-28; Homo sapiens, SK-MEL-28): 4.58 µM | GI% (SK-MEL-28; single dose 10 μM, melanoma): 80.99%
